Experimental findings from PubChem BioAssay (NCI) are described below.

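Five compound concentrations were applied to cells in 96-well plates for 48 hours; endpoints were derived by simple linear interpolation of the resulting dose-response curve. The concentration for 50% growth inhibition is given as GI50. At the TGI there is no net growth.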

Among the test systems are LOX IMVI melanoma; SNB-19 CNS; HCT-116 colon; SK-MEL-28 melanoma; SF-295 CNS; SW-620 colon; TK-10 renal; NCI-H23 lung; MCF7 breast; HS 578T breast.
Assay in all cases: NCI anticancer screen, dose series, 48 h

Take `N#C/C(=C1\OC(=N)C(c2ccc(Cl)cc2Cl)C1=O)c1ccc(Cl)cc1Cl` (stereo not drawn): the TGI in the experiment with LOX IMVI melanoma, in the experiment on SNB-19 CNS, in the experiment on HCT-116 colon, in the experiment with SK-MEL-28 melanoma, with SF-295 CNS and with SW-620 colon was above 100 µM throughout. Also, the TGI in the experiment with TK-10 renal and with NCI-H23 lung was above 100 µM in each case.
Regarding `O=C(CO)C1CC2C=CC1C2` (stereo not drawn), the TGI in the experiment on LOX IMVI melanoma, with SNB-19 CNS, in the experiment with HCT-116 colon, in the experiment with SK-MEL-28 melanoma, with SF-295 CNS and in the experiment on SW-620 colon was above 100 µM in each case. In addition, the TGI in the experiment on TK-10 renal and in the experiment on NCI-H23 lung was above 100 µM in each case.
As for `CCN(Cc1ccc(F)cc1)c1ccc(CO)c(C(F)(F)F)c1`, the GI50 in the experiment with LOX IMVI melanoma is 17.5 µM; with SNB-19 CNS, 15.3 µM; in the experiment on HCT-116 colon it was 1.54 µM; in the experiment with SK-MEL-28 melanoma, 14.1 µM; in the experiment on SF-295 CNS, 3.3 µM; in the experiment with MCF7 breast, 5.77 µM. The values for the GI50 in the experiment with SW-620 colon, in the experiment with NCI-H23 lung and in the experiment with HS 578T breast were 11.2 µM, 11.1 µM and 14.1 µM, respectively. Besides, the TGI was determined as 31.3 µM in the experiment with LOX IMVI melanoma; 28.6 µM in the experiment with SNB-19 CNS; 12.8 µM in the experiment with HCT-116 colon; 27.1 µM with SK-MEL-28 melanoma; 16.5 µM in the experiment on SF-295 CNS; 19.2 µM in the experiment with MCF7 breast. Besides, the figures for the TGI with SW-620 colon, with NCI-H23 lung and in the experiment with HS 578T breast were 23.5 µM, 24.2 µM and 40.3 µM, respectively.
Regarding `COc1ccc2nc3cc(Cl)ccc3c(N3CCN(c4ccnc(N5CCN(C)CC5)n4)CC3)c2c1`, the GI50 is 1.89 µM in the experiment on LOX IMVI melanoma; 2.23 µM in the experiment with SNB-19 CNS; 1.61 µM in the experiment with HCT-116 colon; 1.73 µM in the experiment with SK-MEL-28 melanoma; 19.5 µM in the experiment with SF-295 CNS; 1.8 µM in the experiment with SW-620 colon. In addition, the GI50 is 1.76 µM in the experiment on TK-10 renal, 2.02 µM with NCI-H23 lung and 2.7 µM in the experiment with HS 578T breast. The TGI in the experiment on LOX IMVI melanoma is 3.45 µM; in the experiment on SNB-19 CNS it was 5.44 µM; with HCT-116 colon it was 3.05 µM; in the experiment with SK-MEL-28 melanoma, 3.29 µM; with SF-295 CNS, 54.1 µM; in the experiment on SW-620 colon, 3.53 µM. Also, the values for the TGI in the experiment on TK-10 renal, in the experiment with NCI-H23 lung and with HS 578T breast were 3.2 µM, 4.17 µM and 8.29 µM, respectively.
As to `CC(=O)CC(=O)CCC(=O)Nc1cccc(C(F)(F)F)c1`, the TGI in the experiment with LOX IMVI melanoma, in the experiment with SNB-19 CNS, in the experiment on HCT-116 colon, with SF-295 CNS, in the experiment with SW-620 colon and in the experiment on TK-10 renal was above 100 µM in each case. The compound also showed a TGI in the experiment with NCI-H23 lung above 100 µM.
For `CC(=O)[CH-]C(C)=O.CC(=O)[CH-]C(C)=O.CC(=O)[CH-]C(C)=O.[Ga+3]`, the GI50 in the experiment on LOX IMVI melanoma is 32.7 µM; in the experiment with SNB-19 CNS, above 100 µM; in the experiment on HCT-116 colon it was above 100 µM; in the experiment with SK-MEL-28 melanoma it was above 100 µM; in the experiment on SF-295 CNS, above 100 µM; in the experiment on SW-620 colon, above 100 µM. Besides, the GI50 with TK-10 renal and in the experiment with NCI-H23 lung was above 100 µM each time. Also, the TGI with LOX IMVI melanoma, with SNB-19 CNS, in the experiment with HCT-116 colon, with SK-MEL-28 melanoma, with SF-295 CNS and in the experiment with SW-620 colon was above 100 µM throughout. Besides, the TGI in the experiment with TK-10 renal and in the experiment on NCI-H23 lung was above 100 µM throughout.
For the compound `CC(C)OC(=O)C1Cc2c([nH]c3ccccc23)C(c2ccccc2)N1` (stereo not drawn), the TGI in the experiment on LOX IMVI melanoma, with SNB-19 CNS, with HCT-116 colon, in the experiment with SK-MEL-28 melanoma, with SF-295 CNS and in the experiment with SW-620 colon was above 100 µM throughout. The TGI with TK-10 renal and in the experiment on NCI-H23 lung was above 100 µM in each case.
Turning to `Cc1ccc(C2=Nc3ccccc3SC(c3cccc4c3OCO4)C2)cc1` (stereo not drawn), the TGI in the experiment with LOX IMVI melanoma is 31.1 µM; with SNB-19 CNS it was 30.7 µM; in the experiment on SK-MEL-28 melanoma, 32.9 µM; in the experiment on SF-295 CNS, 45.6 µM; in the experiment on SW-620 colon, 39.8 µM; with TK-10 renal it was 40.3 µM. Also, the TGI in the experiment on NCI-H23 lung was determined as 39.8 µM.
For `O=C(c1c(O)cc(O)cc1O)C1Cc2ccccc21` (stereo not drawn), the TGI in the experiment on LOX IMVI melanoma, with SNB-19 CNS, in the experiment on HCT-116 colon, in the experiment on SF-295 CNS, in the experiment on SW-620 colon and with TK-10 renal was above 100 µM throughout.
Consider `CC(=O)OCC(CC[CH2][Sn]([Cl])([Cl])[c]1ccccc1)OC(C)=O` (stereo not drawn), for which the GI50 in the experiment with LOX IMVI melanoma is 16.8 µM; with SNB-19 CNS it was 27.7 µM; with HCT-116 colon, 18 µM; in the experiment on SK-MEL-28 melanoma, 40.9 µM; in the experiment with SF-295 CNS it was 24.5 µM; in the experiment with SW-620 colon it was 16.7 µM. Besides, the GI50 with TK-10 renal is 27.5 µM; with NCI-H23 lung it was 19.5 µM. Moreover, the TGI in the experiment with LOX IMVI melanoma is 31.6 µM; in the experiment on SNB-19 CNS it was 74.6 µM; in the experiment on HCT-116 colon, 31.9 µM; in the experiment on SK-MEL-28 melanoma it was 58.6 µM; in the experiment on SF-295 CNS, 60 µM; in the experiment with SW-620 colon it was 30.3 µM. Also, the TGI in the experiment with TK-10 renal is above 100 µM; in the experiment on NCI-H23 lung, 39.4 µM.
With `C[P+]1(c2ccccc2)CCCCC1`, the TGI in the experiment on LOX IMVI melanoma, with SNB-19 CNS, with SK-MEL-28 melanoma, in the experiment on SF-295 CNS, in the experiment on SW-620 colon and in the experiment on TK-10 renal was above 100 µM throughout. The compound also displayed a TGI with NCI-H23 lung above 100 µM.
As to `O=[N+]([O-])/C=C/c1ccc(Cl)cc1Cl`, the TGI is 32.4 µM in the experiment on SNB-19 CNS; 13 µM in the experiment on HCT-116 colon; 30.3 µM with SK-MEL-28 melanoma; 32 µM in the experiment with SF-295 CNS; 37.5 µM with SW-620 colon; 42.9 µM in the experiment with NCI-H23 lung.
With `CC1CCC2(C)C(CC=C(C=O)C2(O)C=O)C12CO2` (stereo not drawn), the TGI with LOX IMVI melanoma is 7.47 µM; in the experiment on SNB-19 CNS, 22.5 µM; in the experiment on HCT-116 colon, 6.65 µM; in the experiment on SK-MEL-28 melanoma, 3.97 µM; in the experiment with SF-295 CNS, 13.9 µM; with SW-620 colon, 8.77 µM. The figures for the TGI in the experiment with TK-10 renal and in the experiment on NCI-H23 lung were 5.19 µM and 5.83 µM, respectively.
